Test [1] addresses acetylcholinesterase (Homo sapiens, UniProt P22303). Kind of test: biochemical.
The target of test [2] is butyrylcholinesterase (Homo sapiens, UniProt P06276). Kind of test: biochemical.
Where [3] appears, read: read-out: Acetylcholinesterase IC-50.
The mark [4] stands for this setting: read-out: Butyrylcholinesterase IC-50.

Consider 14 compounds from US20070105837A1, “Novel derivatives of 4a,5,9,10,11,12-hexahydrobenzofuro[3a,3,2][2]-benzazepine, method for the production thereof and use thereof in the production of medicaments” (priority 2003, published 2007).

Counter-ions that a name gives are not always drawn. Like-named read-outs stand apart in the source and are kept apart here. Where only a bound is given, the exact number is not on record here.

Chain of butyrylcholinesterase (P06276 29-602): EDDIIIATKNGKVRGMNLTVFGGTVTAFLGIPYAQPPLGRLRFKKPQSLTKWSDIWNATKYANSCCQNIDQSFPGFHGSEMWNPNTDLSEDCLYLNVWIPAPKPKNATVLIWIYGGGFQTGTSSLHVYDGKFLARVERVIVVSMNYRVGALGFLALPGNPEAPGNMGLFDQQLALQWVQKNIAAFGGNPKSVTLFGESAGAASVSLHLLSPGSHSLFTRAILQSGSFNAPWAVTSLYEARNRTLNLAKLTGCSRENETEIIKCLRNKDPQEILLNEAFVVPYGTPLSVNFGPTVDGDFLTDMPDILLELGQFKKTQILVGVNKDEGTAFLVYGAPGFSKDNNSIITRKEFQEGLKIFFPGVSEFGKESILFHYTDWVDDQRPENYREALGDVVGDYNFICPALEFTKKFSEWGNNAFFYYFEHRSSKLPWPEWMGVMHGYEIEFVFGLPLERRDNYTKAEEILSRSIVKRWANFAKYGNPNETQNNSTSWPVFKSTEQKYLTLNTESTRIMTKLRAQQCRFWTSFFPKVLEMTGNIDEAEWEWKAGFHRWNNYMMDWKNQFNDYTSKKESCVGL
Chain of acetylcholinesterase (P22303 32-614, species assumed): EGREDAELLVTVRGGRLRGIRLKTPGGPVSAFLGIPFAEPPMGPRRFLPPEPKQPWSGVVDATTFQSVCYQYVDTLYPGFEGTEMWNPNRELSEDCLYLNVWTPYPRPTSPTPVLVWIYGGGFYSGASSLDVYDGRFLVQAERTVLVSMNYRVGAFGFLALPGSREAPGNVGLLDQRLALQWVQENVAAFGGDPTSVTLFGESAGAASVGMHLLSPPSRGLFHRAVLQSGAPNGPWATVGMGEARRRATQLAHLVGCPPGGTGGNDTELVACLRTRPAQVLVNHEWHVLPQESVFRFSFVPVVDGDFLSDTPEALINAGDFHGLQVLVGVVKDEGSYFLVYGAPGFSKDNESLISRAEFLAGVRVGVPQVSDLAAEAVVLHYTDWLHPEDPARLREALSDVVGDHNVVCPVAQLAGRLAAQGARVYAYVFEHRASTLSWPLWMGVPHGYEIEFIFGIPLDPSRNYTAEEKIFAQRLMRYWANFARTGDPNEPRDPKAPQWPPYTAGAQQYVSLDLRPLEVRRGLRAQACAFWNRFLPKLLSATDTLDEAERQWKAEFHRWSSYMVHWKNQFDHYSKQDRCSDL

Regarding `COc1ccc2c3c1O[C@@H]1C[C@@H](O)C=C[C@]31CCN(C(N)=O)C2` [Example 25, (4aR,6R,8aR)-4a,5,9,10-tetrahydro-6-hydroxy-3-methoxy-6H-[1]benzofuro[3a,3,2-ef][2]benzazepine-11(12H)-carboxamide], the IC50 in test [1] (setting [3]) and in test [2] (setting [4]) was over 100 µM each time.
Consider `CCN1CC[C@]23C=C[C@H](O)C[C@H]2Oc2c(OC)ccc(c23)C1` [Example 26, (4aR,6R,8aR)-4a,5,9,10,11,12-hexahydro-3-methoxy-11-ethyl-6H-[1]benzofuro[3a,3,2,ef][2]benzazepin-6-ol], for which the IC50 in test [1] and in test [2] was over 100 µM in each case.
As for `COc1ccc2c3c1O[C@@H]1C[C@@H](O)C=C[C@]31CCN(/C(=N/C#N)SC)C2` [Example 27, Methyl (4aR,6R,8aR)-N11-cyano-6-hydroxy-3-methoxy-4a,5,9,10-tetrahydro-6H-[1]benzofuro [3a,3,2-ef][2]benzazepine-11(12H)-carboximidothioate], the IC50 in test [1] (setting [3]) and in test [2] (setting [4]) was over 100 µM each time.
For the compound `COc1ccc2c3c1O[C@@H]1C[C@@H](N)C=C[C@]31CCN(C)C2` [Example 28, (4aR,6R,8aR)-4a,5,9,10,11,12-hexahydro-3-methoxy-11-methyl-6H-benzofuro[3a,3,2-ef][2]benzazepin-6-amine, dihydrochloride], the IC50 in test [1] (setting [3]) and in test [2] (setting [4]) was over 100 µM each time.
For `COc1ccc2c3c1O[C@@H]1C[C@H](O)C=C[C@]31CCN(CCCO)C2` [Example 29, (4aR,6S,8aR)-11-(3-hydroxypropyl)-3-methoxy-5,6,9,10,11,12-hexahydro-4aH-[1]benzofuro[3a,3,2-ef][2]benzazepin-6-ol], the IC50 in test [1] (setting [3]) and in test [2] (setting [4]) was over 100 µM in each case.
As for `COc1ccc2c3c1O[C@H]1C[C@@H](O)C=C[C@@]31CCN(CC(N)=O)C2` [Example 34, 2-((4aS,6R,8aS)-6-hydroxy-3-methoxy-5,6,9,10-tetrahydro-4aH-[1]benzofuro[3a,3,2-ef][2]benzazepine-11(12H)-yl)acetamide], the IC50 in test [1] (setting [3]) is over 100 µM; in test [2] (setting [4]), 78 µM.
For `COc1ccc2c3c1O[C@H]1C[C@@H](O)C=C[C@@]31CCN(c1ncccn1)C2` [Example 37, (4aS,6R,8aS)-3-methoxy-11-(2-pyrimidinyl)-5,6,9,10,11,12-hexahydro-4aH-[1]benzofuro [3a,3,2-ef][2]benzazepin-6-ol] the same measures were over 100 µM and over 100 µM.
In the case of `COc1ccc2c3c1O[C@H]1C[C@@H](O)C=C[C@@]31CCN(C(=O)CCC(=O)O)C2` [Example 39, ((4aS,6R,8aS)-4a,5,9,10,11,12-hexahydro-6-hydroxy-3-methoxy-6H-benzofuro[3a,3,2-ef][2]benzazepine-11--yl)gamma-oxobutyric acid], the IC50 in test [1] (setting [3]) and in test [2] (setting [4]) was over 100 µM in each case.
For `COc1ccc2c3c1O[C@H]1C[C@@H](O)C=C[C@@]31CCN(c1nc(Cl)nc(Cl)n1)C2` [Example 42, (4aS,6R,8aS)-11-(4,6-dichloro-1,3,5,-triazin-2-yl)-3-methoxy-5,6,9,10,11,12-hexahydro-4aH-[1]benzofuro[3a,3,2-ef][2]benzazepin-6-ol], the IC50 in test [1] (setting [3]) and in test [2] (setting [4]) was over 100 µM in each case.
For the compound `COc1ccc2c3c1O[C@H]1C[C@@H](O)C=C[C@@]31CCN(CCCCN1CCCCC1)C2` [Example 50], the IC50 in test [1] stood at 0.036 µM; in test [2], 0.61 µM.
For `COc1cc(Br)c2c3c1O[C@H]1C[C@@H](O)C=C[C@@]31CCN(CCN1CCOCC1)C2` [Example 57, (4aS,6R,8aS)-1-bromo-4a,5,9,10,11,12-hexahydro-11-(2-(mopholin-4-yl)-ethyl)-3-methoxy-6H-[1]benzafuro[3a,3,2-ef][2]benzazepin-6-ol] the same measures were over 100 µM and 2.7 µM.
On to `COc1ccc2c3c1O[C@@H]1C=C(c4ccccc4)C=C[C@@]31CCN(C)C2` [Example 59, (4aS,8aS)-D5,6-4a,5,9,10,11,12-hexahydro-11-methyl-3-methoxy-6-phenyl-6H-[1]benzofuro[3a,3,2-ef][2]benzazepine], for which the IC50 amounted to 52 µM in test [1] (setting [3]) and 25 µM in test [2] (setting [4]).
The matching figures for `COc1ccc2c3c1O[C@H]1C=C(C)C=C[C@@]31CCN(C)C2` [Example 60, (4aS,8aS)-D5,6--4a,5,9,10,11,12-hexahydro-6,11-dimethyl-3-methoxy-6H-[1]benzofuro[3a,3,2-ef][2]benzazepine]: 80 µM and 200 µM.
The matching figures for `COc1ccc2c3c1O[C@H]1C=C(C(C)C)C=C[C@@]31CCN(C)C2` [Example 61, (4aS,8aS)-D5,6-4a,5,9,10,11,12-hexahydro-6-(isopropyl)-11-methyl-3-methoxy-6H-[1]benzofuro [3a,3,2-ef][2]benzazepine]: over 100 µM and 9 µM.
